Measured values reported in article PMC10648159, “Novel MAGL Inhibitors Alleviate LPS-Induced Acute Kidney Injury by Inhibiting NLRP3 Inflammatory Vesicles, Modulating Intestinal Flora, Repairing the Intestinal Barrier, and Interfering with Serum Metabolism” (Molecules, 2023).

Molecular target: T1, monoacylglycerol lipase (MAGL) (Homo sapiens, UniProt Q99685)
T1 construct: gene MGLL
T1 sequence (Q99685 1-303): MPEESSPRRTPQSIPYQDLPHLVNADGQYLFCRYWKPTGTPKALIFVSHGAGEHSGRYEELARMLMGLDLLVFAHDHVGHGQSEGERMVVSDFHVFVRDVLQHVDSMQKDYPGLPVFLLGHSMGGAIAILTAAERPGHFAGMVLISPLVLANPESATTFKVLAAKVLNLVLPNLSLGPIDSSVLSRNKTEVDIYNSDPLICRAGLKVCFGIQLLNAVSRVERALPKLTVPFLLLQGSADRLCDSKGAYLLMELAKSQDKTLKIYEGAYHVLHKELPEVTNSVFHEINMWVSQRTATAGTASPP
Test: Cayman Monoacylglycerol Lipase Inhibitor Screening Assay Kit, absorbance at […] nm, […] min preincubation; maximum inhibition about […]
Type: biochemical

CN1c2ccccc2CC1C(=O)N1CCC(C(=O)Nc2cccc(Cl)c2)CC1 (stereo not shown) [M-18C, MAGLZ-18(c)]
IC50: 663 nM
